Structures are written as SMILES.

For the test, the system named is Raw 264.7 cells. Kind of test: Inhibition of LDH release from Ox-LDL-oxidised Raw 264.7 cells (WST absorbance). The following applies: Ox-LDL 100 μg/mL, compared to the positive control group (LDH release rate 30%). Format: cell-based. The procedure: To confirm the anti-oxidative effect of the compounds according to the present invention, the amount of lactate dehydrogenase (LDH), which is a material released from cells killed or damaged by oxidation, was measured by measuring the absorbance using water soluble tetrazolium salt (WST) to measure cytotoxicity. Specifically, Raw 264.7 cells, in which oxidation was induced with 100 μg/mL of oxidized low-density lipoprotein (Ox-LDL), were treated with test materials (2 kinds of comparative groups and 2 kinds of experimental groups) at 1 μM and 10 μM concentrations, respectively, and their ability to inhibit LDH release (i.e., a standard indicator of anti-oxidative effects) was confirmed. As reference, the LDH release rate in the negative control group in which no treatment was made was 7% and the LDH release rate in the positive control group treated with only Ox-LDL was 30%.

For the compound `CC(=O)N[C@@H](CS)C(=O)O` [NAC, N-acetyl-L-cysteine], the “decrease of LDH release rate” value (1 μM) is given as 6% and the “decrease of LDH release rate” value (10 μM) is 13%.
On the same counts, the results for `CC(=O)NC(CSCCCSCC(N)C(=O)O)C(=O)O` (centres unmarked) [Newcompound-1, 2-acetamido-3-(3-(2-amino-2-carboxyethylthio)propylthio)propanoic acid] are 12% and 21%.
On the same counts, the results for `CC(=O)NC(CSCCCSCC(NC(C)=O)C(=O)O)C(=O)O` (centres unmarked) [Newcompound-2, 2,14-dioxo-6,10-dithia-3,13-diazapentadecan-4,12-dicarboxylic acid] are 11% and 20%.
For `C=CCSC[C@H](N)C(=O)O` [SAC, S-allyl-L-cysteine] the same measures were 7% and 16%.

The record behind these values is patent US10730829B2, “Compound exhibiting anti-oxidative or anti-inflammatory activity” (University-Industry Cooperation Group of Kyung Hee …, priority 2016, dated 2020).
